Data set [1] relates to Hsp70. The experiment in a line: Hsp70 synthesis stimulation assay (competitive ELISA). In kind it is cell-based. The settings on record: human keratinocyte cell line, normalized to average basal values. On the procedure:
Hsp70 synthesis stimulation was assessed in a human keratinocyte cell line in the presence of the peptides of the invention. The cells were seeded (10^6 cells/6-well plate) and incubated for 24 hours in DMEM, after which the peptides were added to 200 μM in culture medium and were incubated for another 16-24 hours. The proteasome inhibitor MG-132 at 10 μM was used as a positive control and vehicle (culture medium) as a negative control. After the incubation period, the cells were washed with PBS, lysed and centrifuged at 12,000 rpm at 4° C. for 10 min. The supernatants were collected, and the Hsp70 levels were determined by carrying out a competitive ELISA assay following the protocols of the commercial kit (DuoSet IC human/mouse total HSP70 ELISA kit, R&D Systems Inc.)
Hsp70 levels were normalized with regards to the average basal values.
On the technique in general: ELISA stands for enzyme-linked immunosorbent assay.

The test system of data set [2] is human keratinocytes. In kind it is cell-based. The settings on record: 2 h, 0.1 mM. As to the method:
The human keratinocytes were maintained in culture for 24 hours in 96-well plates for monolayer formation and the cells were pre-incubated in darkness with 0.1 mM of Ac-L-His-L-Pro-L-Leu-L-Arg-OH, Ac-L-His-L-Leu-L-Leu-L-Arg-OH in culture medium or with vehicle (culture medium) for 2 hours at 37° C. Subsequently the cells were radiated with UVB at an energy of 800 J/m^2. A control plate with vehicle was maintained in the dark without radiation for the same time at room temperature. After the irradiation period the cells' medium was replaced by a fresh medium and the cells were incubated for additional 24 hours. Cell viability was determined by the MTT method, adding 5 mg/mL of the MTT solution to each well and incubating the plate for 4 hours at 37° C., after which time the medium was removed, 100μL of DMSO was added and the plate was stirred at room temperature for 15 min. The optical density of each well was measured at 570 nm in a spectrophotometer.

Peptide text beside a SMILES is read from it. * marks the point of attachment. Cbz = O=C(OCc1ccccc1)*

As for `CC(=O)N[C@@H](Cc1c[nH]cn1)C(=O)N[C@@H](CC(C)C)C(=O)N[C@@H](CC(C)C)C(=O)N[C@@H](CCCNC(=N)N)C(=O)O` [Ac-L-His-L-Leu-L-Leu-L-Arg-OH] (Ac-HLLR-OH), in data set [1] (peptide 200 μM, 16-24 hours), the Hsp70 increase stood at 28%. The “CELL VIABILITY” value in data set [2] came out at 87.7%.
For the compound `CC(=O)N[C@@H](Cc1c[nH]cn1)C(=O)N1CCC[C@H]1C(=O)N[C@@H](CC(C)C)C(=O)N[C@@H](CCCNC(=N)N)C(=O)O` [Ac-L-His-L-Pro-L-Leu-L-Arg-OH] (Ac-HPLR-OH), the Hsp70 increase in data set [1] (peptide 200 μM, 16-24 hours) worked out at 42%. Besides, the “CELL VIABILITY” value in data set [2] is given as 97.2%.
Turning to `CC(C)C[C@@H](C=O)NC(=O)[C@H](CC(C)C)NC(=O)[C@H](CC(C)C)NC(=O)OCc1ccccc1` [MG-132, reference compound] (Cbz-Leu-Leu-Leu-aldehyde), the Hsp70 increase in data set [1] (positive control MG-132 at 10 μM) was found to be 294%.

The record behind these values is patent publication US8993716B2, “Peptides used in the treatment and/or care of the skin, mucous membranes and/or hair and its use in cosmetic or pharmaceutical compositions” (Lipotec, S.A., priority 2009, dated 2015).
